{
  "source": "patent US10016424B2",
  "about": "“Method and pharmaceutical composition for use in the treatment of epilepsy” (INSERM (Institut National de la Sante et de la Recherche …, priority 2013, dated 2018)",
  "key": {"[1]": {"test_system": "bursts driven by recurrent mossy fibers in DG", "test": "Antidromically evoked bursts (coastline burst index) in dentate gyrus of acute slices from pilocarpine-treated mice", "format": "cell-based, mouse", "conditions": "WT mice; bath application", "protocol": "All experiments were approved by the Institut National de la Santé et de la Recherche Médicale animal care and use committee of May 29, 2001 (2001-464) and the European community council directive of Nov. 24, 1986 (86/609/EEC). Mice (FVB/N background) had access to food and water ad libitum and were housed under a 12 h light/dark cycle at 22-24° C. Male GluK2−/− and WT mice (P60-80) were given scopolamine (1 mg/kg) subcutaneously (s.c.) 15 minutes prior to s.c. administration of pilocarpine (200-600 mg/kg). A ramp protocol was used whereby animals were given an initial dose of 200 mg/kg followed by half-doses every 30 minutes until seizures appeared. […] Diazepam (10 mg/kg) was administered 45 minutes after onset of SE. […]\nCultured or acute slices were individually transferred to a recording chamber maintained at 30-32° C. and continuously perfused (2 ml/min) with oxygenated normal or adapted ACSF containing 5 μM gabazine. […] Signals were analyzed off-line using Clampfit 9.2 (PClamp) and MiniAnalysis 6.0.1 (Synaptosoft, Decatur, Ga.). In organotypic slices, spontaneous EPSCs were recorded at the reversal potential for GABAergic currents (Vh=−70 mV). To characterize the nature and kinetic properties of fast and slow events, miniature EPSCs (mEPSCs) evoked in Sr2+ conditions (external Ca2+ was substituted with 1.2 mM Sr2+) were recorded in DGCs from GluK2−/− and WT slices. […]"}, "GluK2/GluK5 receptors": {"biological_target": "GluK2/GluK5 receptors (Homo sapiens, UniProt Q13002+Q16478)", "sequence (Q13002 32-908)": "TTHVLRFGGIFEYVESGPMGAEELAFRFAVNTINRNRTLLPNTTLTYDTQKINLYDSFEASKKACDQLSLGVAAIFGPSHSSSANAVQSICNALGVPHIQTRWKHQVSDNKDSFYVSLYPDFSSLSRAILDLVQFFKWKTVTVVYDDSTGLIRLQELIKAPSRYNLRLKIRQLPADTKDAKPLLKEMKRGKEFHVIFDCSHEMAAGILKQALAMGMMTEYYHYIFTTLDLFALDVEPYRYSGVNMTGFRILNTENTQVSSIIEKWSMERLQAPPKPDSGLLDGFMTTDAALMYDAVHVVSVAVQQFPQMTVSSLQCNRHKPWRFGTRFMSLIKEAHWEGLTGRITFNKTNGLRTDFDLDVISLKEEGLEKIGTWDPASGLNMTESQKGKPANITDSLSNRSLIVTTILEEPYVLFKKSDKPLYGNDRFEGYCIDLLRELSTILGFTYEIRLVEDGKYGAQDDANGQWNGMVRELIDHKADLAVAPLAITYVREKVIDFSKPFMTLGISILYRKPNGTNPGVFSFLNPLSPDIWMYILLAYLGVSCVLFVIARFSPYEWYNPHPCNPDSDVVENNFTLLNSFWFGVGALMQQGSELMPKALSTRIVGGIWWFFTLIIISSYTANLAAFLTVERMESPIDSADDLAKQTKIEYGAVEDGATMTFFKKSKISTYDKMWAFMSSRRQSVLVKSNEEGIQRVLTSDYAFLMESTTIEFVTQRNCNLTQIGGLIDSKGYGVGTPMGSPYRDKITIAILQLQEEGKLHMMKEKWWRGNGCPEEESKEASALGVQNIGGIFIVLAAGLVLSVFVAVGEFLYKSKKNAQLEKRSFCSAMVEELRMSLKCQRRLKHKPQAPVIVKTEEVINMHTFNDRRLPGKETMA", "sequence (Q16478 15-980)": "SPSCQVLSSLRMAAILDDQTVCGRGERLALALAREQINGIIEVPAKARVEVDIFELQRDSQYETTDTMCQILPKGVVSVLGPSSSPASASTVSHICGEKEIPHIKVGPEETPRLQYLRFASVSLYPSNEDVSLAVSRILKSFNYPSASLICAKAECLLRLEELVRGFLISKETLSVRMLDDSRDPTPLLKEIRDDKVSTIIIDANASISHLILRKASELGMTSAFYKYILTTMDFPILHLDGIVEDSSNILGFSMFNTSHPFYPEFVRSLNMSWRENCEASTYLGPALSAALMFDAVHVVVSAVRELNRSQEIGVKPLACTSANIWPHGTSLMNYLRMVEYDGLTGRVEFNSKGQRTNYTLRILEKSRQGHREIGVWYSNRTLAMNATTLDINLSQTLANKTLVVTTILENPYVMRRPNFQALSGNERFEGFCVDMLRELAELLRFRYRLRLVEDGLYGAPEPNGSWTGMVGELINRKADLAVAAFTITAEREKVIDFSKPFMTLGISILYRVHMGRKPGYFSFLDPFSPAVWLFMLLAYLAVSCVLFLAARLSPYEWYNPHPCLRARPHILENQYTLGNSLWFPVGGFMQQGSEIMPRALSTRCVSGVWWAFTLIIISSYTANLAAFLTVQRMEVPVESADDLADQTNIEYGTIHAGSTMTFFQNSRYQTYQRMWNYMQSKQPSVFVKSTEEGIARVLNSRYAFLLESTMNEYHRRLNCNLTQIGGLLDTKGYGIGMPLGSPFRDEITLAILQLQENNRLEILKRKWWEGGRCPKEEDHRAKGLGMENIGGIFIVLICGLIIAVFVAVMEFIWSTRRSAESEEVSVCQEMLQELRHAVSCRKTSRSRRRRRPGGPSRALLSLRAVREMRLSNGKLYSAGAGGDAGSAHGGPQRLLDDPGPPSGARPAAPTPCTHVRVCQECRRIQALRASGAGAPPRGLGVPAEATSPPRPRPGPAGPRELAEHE", "conditions": "cited from earlier work"}, "AMPA receptor": {"test_system": "AMPA receptor", "conditions": "cited from earlier work"}, "[2]": {"test_system": "dentate gyrus of organotypic slices", "test": "Spontaneous interictal-like activity, extracellular field recordings in pilocarpine-treated organotypic hippocampal slice cultures", "format": "cell-based, mouse", "conditions": "P=0.902, n=6"}},
  "data": [
    {"smiles": "Cc1cn(C[C@H](N)C(=O)O)c(=O)n(Cc2ccsc2C(=O)O)c1=O", "note": "[UBP310]", "values": [
      {"measurement": "reduction of evoked bursts (coastline burst index)", "setting": "[1]", "result": 55, "unit": "%"},
      {"measurement": "inhibition of heteromeric GluK2/GluK5 receptors", "setting": "GluK2/GluK5 receptors", "result": "inhibits GluK2/GluK5"},
      {"measurement": "interference with normal synaptic transmission due to the AMPA receptor", "setting": "AMPA receptor", "result": "does not interfere"},
      {"measurement": "reduction of frequency of interictal-like activity in GluK1-/- versus WT mice", "setting": "[2]", "result": "similarly effective"}
    ]}
  ]
}
